# From patent US8946240B2, “4-amino-3-(imidazolyl)-pyrazolo[3,4-D]pyrimidines” (ChemoCentryx, Inc., priority 2008, dated 2015)
# Biological target: T1, CCR1 (Homo sapiens, UniProt P32246)
# T1 construct: host or cells: THP-1 cells or freshly isolated monocytes
# T1 sequence (P32246 1-355): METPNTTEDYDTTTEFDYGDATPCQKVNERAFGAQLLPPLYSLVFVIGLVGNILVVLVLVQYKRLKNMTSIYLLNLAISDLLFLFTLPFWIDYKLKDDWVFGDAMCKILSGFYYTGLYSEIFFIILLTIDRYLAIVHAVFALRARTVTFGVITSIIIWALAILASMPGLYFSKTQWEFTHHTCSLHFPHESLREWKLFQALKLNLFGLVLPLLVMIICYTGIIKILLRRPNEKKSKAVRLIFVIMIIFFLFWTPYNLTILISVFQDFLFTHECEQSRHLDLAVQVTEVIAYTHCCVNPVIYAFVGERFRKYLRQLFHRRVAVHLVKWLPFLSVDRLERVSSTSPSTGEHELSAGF
# Assay: chemotaxis assay (THP-1 cells or monocytes migrating to CCR1 chemokine ligands)
# Type: cell-based
# Details: chemotaxis assay; compared with drawing 40
# Experimental: THP-1 cells were obtained from ATCC (TIB-202) and cultured as a suspension in RPMI-1640 medium supplemented with 2 mM L-glutamine, 1.5 g/L sodium bicarbonate, 4.5 g/L glucose, 10 mM HEPES, 1 mM sodium pyruvate, 0.05% 2-mercaptoethanol and 10% FBS. Cells were grown under 5% CO2/95% air, 100% humidity at 37° C. and subcultured twice weekly at 1:5 (cells were cultured at a density range of 2×10^5 to 2×10^6 cells/mL) and harvested at 1×10^6 cells/mL. THP-1 cells express CCR1 and can be used in CCR1 binding and functional assays.
# One of the primary functions of chemokines is their ability to mediate the migration of chemokine receptor-expressing cells, such as white blood cells. To confirm that a compound of interest inhibited not only CCR1 specific binding and signaling (at least as determined by calcium mobilization assays), but also CCR1 mediated migration, a chemotaxis assay was employed. THP-1 myelomonocytic leukemia cells, which resemble monocytes, as wells as freshly isolated monocytes, were used as targets for chemoattraction by CCR1 chemokine ligands (i.e., MIP-1α, CCL15/leukotactin). Cells were place in the top compartment of a microwell migration chamber, 5 μm pore polycarbonate, polyvinylpyrrolidone-coated filters in 96-well chemotaxis chambers (Neuroprobe; Gaithersburg, Md.) using chemotaxis buffer (Hank's balanced salt solution (HBSS) and 1% FBS. CCR1 chemokine ligands (i.e., MIP-1α, CCL15/Leukotactin; R&D Systems; Minneapolis, Minn.) are used to evaluate compound mediated inhibition of CCR1 mediated migration. Other chemokines (i.e., SDF-1α; R&D Systems; Minneapolis, Minn.) are used as specificity controls. The lower chamber was loaded with 29 μl of chemokine (i.e., 0.1 nM CCL15/Leukotactin) and varying amounts of compound; the top chamber contained 100,000 THP-1 or monocyte cells in 20 μl. […] To ascertain a compound of interest's affinity for CCR1 as well as to confirm its ability to inhibit CCR1 mediated cell migration, inhibitory activity was titered over a 1×10^−10 to 1×10^−4 M range of compound concentrations in this chemotaxis assay. In this assay, the amount of compound was varied; while cell number and chemokine agonist concentrations were held constant. After the chemotaxis chambers were incubated 1-2 hours at 37° C., the responding cells in the lower chamber were quantified by labeling with the CyQuant assay (Molecular Probes), a fluorescent dye method that measures nucleic acid content, and by measuring with a Spectrafluor Plus (Tecan). The computer program Prism from GraphPad, Inc. (San Diego, Calif.) was used to calculate IC50 values. IC50 values are those compound concentrations required to inhibit the number of cells responding to a CCR1 agonist by 50%.
row,IC50 relative to comparator compound,Compound
1,an order of magnitude lower,COc1cc(N2CCN(C(=O)Cn3nc(-c4ncc[nH]4)c4c(N)ncnc43)[C@@H](C)C2)c(F)cc1Cl [drawing 39]

# Same assay, conditions: versus imidazole-substituted pyrido[4,3-b]pyrazoles of related U.S. application Ser. No. 12/124,894
row,Compound,activity in direct comparisons relative to the related compounds tested
1,CCOc1cc(N2CCN(C(=O)Cn3nc(-c4ncc[nH]4)c4c(N)ncnc43)CC2)ccc1Cl [Compound 1.007],at least an order of magnitude better
2,Nc1ncnc2c1c(-c1ncc[nH]1)nn2CC(=O)N1CCN(c2ccc(Cl)c(OC(F)(F)F)c2)CC1 [Compound 1.010],at least an order of magnitude better
3,CCOc1cc(N2CCN(C(=O)Cn3nc(-c4ncc[nH]4)c4c(N)ncnc43)[C@@H](C)C2)ccc1Cl [Compound 1.011],at least an order of magnitude better

# Second part, the compound after the results:
row,activity in direct comparisons relative to the related compounds tested,Compound
1,at least an order of magnitude better,COc1cc(N2CCN(C(=O)Cn3nc(-c4ncc[nH]4)c4c(N)ncnc43)CC2)ccc1Cl [Compound 1.001]
2,at least an order of magnitude better,C[C@H]1CN(c2ccc(Cl)cc2F)CCN1C(=O)Cn1nc(-c2ncc[nH]2)c2c(N)ncnc21 [Compound 1.003]
3,at least an order of magnitude better,COc1cc(N2CCN(C(=O)Cn3nc(-c4ncc[nH]4)c4c(N)ncnc43)[C@@H](C)C2)ccc1Cl [Compound 1.004]
4,at least an order of magnitude better,COc1cc(N2CCN(C(=O)Cn3nc(-c4ncc[nH]4)c4c(N)ncnc43)[C@@H](C)C2)c(F)cc1Cl [Compound 1.006]
